The text below walks through data of patent publication US9890133B2 (priority 2011, dated 2018).

One data set is described as follows: in vitro. Particulars: human.
In a further data set the test system is Poliovirus 3. The data set can be described thus: microbe, parasite or virus in culture. The class given is cell-based. Conditions: Enterovirus C.

Molecules are shown by their SMILES. In brackets after ≈: the same amount, converted by molar mass. Like-named read-outs stand apart in the source and are kept apart here.

In the case of `CC(C)OC(=O)Nc1cccc2c1C(=O)C1(O)c3ccc(C(C)C)cc3OC21O` (stereo not drawn) [Example 29, Isopropyl 4b,9b-dihydroxy-7-isopropyl-10-oxo-9b,10-dihydro-4bH-benzo[d]indeno[1,2-b]furan-1-ylcarbamate], the melting point – broadly, the temperature, or range, at which the solid turns liquid – was 200 to 202 °C. The compound also showed a CC50 in “in vitro” (Picorana CC50) of 7.49 mg/L (≈ 18.8 µM).
Take `O=C1c2ccccc2C2(O)Oc3c(ccc4c3CCCC4)C12O` (stereo not drawn) [Example 31, 6b,11b-Dihydroxy-1,2,3,4,6b,11b-hexahydro-12-oxa-benzo[4,5]pentaleno[2,1-a]naphthalen-7-one]: the melting point is 252 to 254 °C. The CC50 in the data set “in vitro” (Picorana CC50) was found to be 8.9 mg/L (≈ 28.9 µM).
`COc1ccc2c(c1)C(=O)C1(O)c3ccc(C(C)C)cc3OC21O` (stereo not drawn) [Example 32, 4b,9b-Dihydroxy-7-isopropyl-2-methoxy-4b,9b-dihydro-5-oxa-indeno[2,1-a]inden-10-one] came in with a melting point of 98 to 102 °C. This compound gave a CC50 in the data set “in vitro” (Picorana CC50) of 8.1 mg/L (≈ 24.8 µM).
For `CC(C)c1ccc2c(c1)OC1(OC(=O)C(C)(C)C)c3ccccc3C(=O)C21OC(=O)C(C)(C)C` (stereo not drawn) [Example 33, 7-Isopropyl-10-oxo-9b,10-dihydro-4bH-benzo[d]indeno[1,2-b]furan-4b,9b-diyl bis(2,2-dimethylpropanoate)], the melting point lay within 153 to 157 °C. The CC50 in the data set “in vitro” (Picorana CC50) was over 50 mg/L.
In the case of `CC(C)c1ccc2c(c1)OC1(OC(=O)/C=C/c3ccccc3)c3ccccc3C(=O)C21OC(=O)/C=C/c1ccccc1` (stereo not drawn) [Example 34, (2E,2′E)-7-Isopropyl-10-oxo-9b,10-dihydro-4bH-benzo[d]indeno[1,2-b]furan-4b,9b-diyl bis(3-phenylacrylate)], the melting point was 111 to 113 °C. This compound also registered a CC50 in the data set “in vitro” (Picorana CC50) of over 50 mg/L.
`C=CC(=O)OC12Oc3cc(C(C)C)ccc3C1(O)C(=O)c1ccccc12` (stereo not drawn) [Example 35, 9b-Hydroxy-7-isopropyl-10-oxo-9b,10-dihydro-4bH-benzo[d]indeno[1,2-b]furan-4b-yl acrylate] registered a melting point of 95 to 97 °C. In “in vitro” (Picorana CC50), this compound came in with a CC50 of 46.7 mg/L (≈ 133 µM).
With `CC(C)c1ccc2c(c1)OC1(OC(=O)c3ccco3)c3ccccc3C(=O)C21O` (stereo not drawn) [Example 36, 9b-Hydroxy-7-isopropyl-10-oxo-9b,10-dihydro-4bH-benzo[d]indeno[1,2-b]furan-4b-yl furane-2-carboxylatefurane-2-carboxylic acid], the melting point fell in the range of 116 to 120 °C. Besides, in “in vitro” (Picorana CC50), the CC50 came to 9.34 mg/L (≈ 23.9 µM).
For the compound `CCOC(=O)OC12Oc3cc(C(C)C)ccc3C1(OC(=O)OCC)C(=O)c1ccccc12` (stereo not drawn) [Example 37, Diethyl 7-isopropyl-10-oxo-9b,10-dihydro-4bH-benzo[d]indeno[1,2-b]furane-4b,9b-diyl dicarbonate], the melting point lay within 150 to 153 °C. The same compound had a CC50 in the data set “in vitro” (Picorana CC50) of 9.68 mg/L (≈ 22 µM).
`CCOC(=O)OC12Oc3cc(C(C)C)ccc3C1(O)C(=O)c1ccccc12` (stereo not drawn) [Example 38, Ethyl 9b-hydroxy-7-isopropyl-10-oxo-9b,10-dihydro-4bH-benzo[d]indeno[1,2-b]furan-4b-yl carbonate]: the melting point fell in the range of 144 to 147 °C. The compound further returned a CC50 in the data set “in vitro” (Picorana CC50) of 9.5 mg/L (≈ 25.8 µM).
`COC(=O)c1ccc2c(c1)C1(O)C(=O)c3ccccc3C1(O)O2` (stereo not drawn) [Example 39, Methyl 4b,9b-dihydroxy-10-oxo-9b,10-dihydro-4bH-benzo[d]indeno[1,2-b]furan-8-carboxylate]: the melting point lay in the range of 220 to 223 °C. Also, in “in vitro” (Picorana CC50), the CC50 worked out at 45.1 mg/L (≈ 144 µM).
The corresponding values for `CCN(CC)C(=O)OC12Oc3cc(C(C)C)ccc3C1(O)C(=O)c1ccccc12` (stereo not drawn) [Example 40, 9b-Hydroxy-7-isopropyl-10-oxo-9b,10-dihydro-4bH-benzo[d]indeno[1,2-b]furan-4b-yl diethylcarbamate] are 127 to 130 °C and 44 mg/L (≈ 111 µM).
The like results for `CCN(CC)C(=O)OC12C(=O)c3ccccc3C1(O)Oc1cc(C(C)C)ccc12` (stereo not drawn) [Example 41, 4b-Hydroxy-7-isopropyl-10-oxo-9b,10-dihydro-4bH-benzo[d]indeno[1,2-b]furan-9b-yl diethylcarbamate] were, in that order, 101 to 104 °C and 27.1 mg/L (≈ 68.6 µM).
With `CC(C)c1ccc2c(c1)OC1(O)c3cc(F)c(F)cc3C(=O)C21O` (stereo not drawn) [Example 42, 2,3-Difluoro-4b,9b-dihydroxy-7-isopropyl-4bH-benzo[d]indeno[1,2-b]furan-10(9bH)-one], the melting point lay within 134 to 136 °C. This compound displayed a CC50 in “in vitro” (Picorana CC50) of 8.94 mg/L (≈ 26.9 µM).
`CC(C)c1ccc2c(c1)O[C@@]1(O)c3cccc(O)c3C(=O)[C@@]21O` [Example 43, 1,4b,9b-Trihydroxy-7-isopropyl-4bH-benzo[d]indeno[1,2-b]furan-10(9bH)-one] displayed a melting point of 205 to 207 °C. The same compound yielded a CC50 in “in vitro” of 33.2 mg/L (≈ 106 µM).
Take `CC(C)c1ccc2c(c1)O[C@@]1(O)c3cc4ccccc4cc3C(=O)[C@@]21O` [Example 44, 4b,9b-Dihydroxy-7-isopropyl-1H-cyclopenta[b]naphthalene o[1,2-b]furan-10(9bH)-one]: the melting point was 186 to 189 °C. The compound also came in with a CC50 in the data set “in vitro” (Picorana CC50) of 6.25 mg/L (≈ 18 µM).
Consider `CC(=O)Nc1cccc2c1C(=O)C1(O)c3ccc(C(C)C)cc3OC21O` (stereo not drawn) [Example 48, N-(4b,9b-Dihydroxy-7-isopropyl-10-oxo-9b,10-dihydro-4bH-benzo[d]indeno[1,2-b]furan-1-yl)acetamide], for which the melting point was 152 to 154 °C. The compound also showed a CC50 in the data set “in vitro” (Picorana CC50) of 35 mg/L (≈ 99.1 µM).
Compound `COC(=O)Nc1cccc2c1C(=O)C1(O)c3ccc(C(C)C)cc3OC21O` (stereo not drawn) [Example 49, Methyl 4b,9b-dihydroxy-7-isopropyl-10-oxo-9b,10-dihydro-4bH-benzo[d]indeno[1,2-b]furan-1-ylcarbamate] returned a melting point of 96 to 99 °C. In the data set “in vitro” (Picorana CC50), the CC50 turned out to be 9.18 mg/L (≈ 24.9 µM).
For `CCc1ccc2c(c1)OC1(O)c3cccc(N)c3C(=O)C21O` (stereo not drawn) [Example 50, 1-Amino-7-ethyl-4b,9b-dihydroxy-4b,9b-dihydro-5-oxa-indeno[2,1-a]inden-10-one], the melting point was in the range of 200 to 203 °C. Besides, in the data set with Poliovirus 3 (HeLa37, 48 h, read-out: Poliovirus 3 EC50), the concentration for a half-maximal effect (EC50) – broadly, the concentration giving half of the maximal effect – is under 0.1 mg/L. In addition, in the data set on Poliovirus 3 (read-out: Poliovirus3 EC50), the concentration giving a half-maximal response (EC50) was under 0.1 mg/L. The CC50 in “in vitro” amounted to 49.9 mg/L (≈ 168 µM).
Consider `COC(=O)O[C@@]12Oc3cc(C(C)C)ccc3[C@]1(OC(=O)OC)C(=O)c1c(N)cccc12` [Example 51], for which the melting point was 110 to 120 °C. This compound returned a CC50 in the data set “in vitro” (Picorana CC50) of 17.5 mg/L (≈ 40.9 µM).
The like results for `CCc1ccc2c(c1)OC1(O)c3ccc(O)cc3C(=O)C21O` (stereo not drawn) [Example 52, 7-Ethyl-2,4b,9b-trihydroxy-4b,9b-dihydro-5-oxa-indeno[2,1-a]inden-10-one] were, in that order, 208 to 213 °C and over 50 mg/L.
In turn, `CC(=O)OC12Oc3cc(C(C)C)ccc3C1(OC(C)=O)C(=O)c1c([N+](=O)[O-])cccc12` (stereo not drawn) [Example 53] showed a melting point of 201 to 203 °C. This compound returned a CC50 in “in vitro” (Picorana CC50) of 45.6 mg/L (≈ 107 µM).
`CC(C)NC(=O)Nc1cccc2c1C(=O)C1(O)c3ccc(C(C)C)cc3OC21O` (stereo not drawn) [Example 55] came in with a melting point of 81 to 85 °C. The compound further came in with a CC50 in “in vitro” (Picorana CC50) of 7.49 mg/L (≈ 18.9 µM).
The like results for `CC(=O)Nc1cccc2c1C(=O)C1(N)c3ccc(C(C)C)cc3OC21O` (stereo not drawn) [Example 56] were, in that order, 152 to 156 °C and 42.2 mg/L (≈ 120 µM).
`CC(=O)Nc1cccc2c1C(=O)C1(NC(C)=O)c3ccc(C(C)C)cc3OC21O` (stereo not drawn) [Example 57, N,N′-(4b-Hydroxy-7-isopropyl-10-oxo-9b,10-dihydro-4bH-benzo[d]indeno[1,2-b]furane-1,9b-diyl)diacetamide] registered a melting point of 189 to 191 °C. This compound came in with a CC50 in “in vitro” (Picorana CC50) of 46.7 mg/L (≈ 118 µM).
On to `CC(C)c1ccc2c(c1)OC1(O)c3c(N)ccc(N)c3C(=O)C21O` (stereo not drawn) [Example 61, 1,4-diamino-4b,9b-dihydroxy-7-isopropyl-4bH-benzo[d]indeno[1,2-b]furan-10(9bH)-one], for which the melting point was 223 to 231 °C. The compound also yielded a CC50 in the data set “in vitro” (Picorana CC50) of over 50 mg/L.
With `CC(C)c1ccc2c(c1)OC1(O)c3ccc(N)c(N)c3C(=O)C21O` (stereo not drawn) [Example 62, 1,2-Diamino-4b,9b-dihydroxy-7-isopropyl-4bH-indeno[1,2-b]benzofuran-10(9bH)-one], the melting point lay within 163 to 166 °C. For the same compound, the CC50 in the data set “in vitro” (Picorana CC50) was over 50 mg/L.
Turning to `CC(C)c1ccc2c(c1)OC1(OCCO)c3ccccc3C(=O)C21O` (stereo not drawn) [Example 79, 9b-Hydroxy-4b-(2-hydroxyethoxy)-7-isopropyl-4bH-benzo[d]indeno[1,2-b]furan-10(9bH)-one], the melting point was in the range of 100 to 105 °C. Further, the CC50 in “in vitro” (Picorana CC50) was found to be 10.4 mg/L (≈ 30.6 µM).
In turn, `CC(C)c1ccc2c(c1)O[C@@]1(O)c3cccc([N+](=O)[O-])c3C(=O)[C@@]21O` [Example 80, 4b,9b-Dihydroxy-7-isopropyl-1-nitro-4bH-benzo[d]indeno[1,2-b]furan-10(9bH)-one] had a melting point of 186 to 188 °C. Moreover, in the data set “in vitro” (Picorana CC50), the CC50 turned out to be 47.5 mg/L (≈ 139 µM).
For the compound `COc1cc2c(cc1OC)[C@]1(O)Oc3cc(C(C)C)ccc3[C@]1(O)C2=O` [Example 81, 4b,9b-Dihydroxy-7-isopropyl-2,3-dimethoxy-4bH-benzo[d]indeno[1,2-b]furan-10(9bH)-one], the melting point is 127 to 129 °C. In “in vitro” (Picorana CC50), this compound displayed a CC50 of 8.61 mg/L (≈ 24.2 µM).
In turn, `Cc1cc2c(cc1C)C1(O)Oc3cc(C(C)C)ccc3C1(O)C2=O` (stereo not drawn) [Example 82, 4b,9b-dihydroxy-7-isopropyl-2,3-dimethyl-4bH-benzo[d]indeno[1,2-b]furan-10(9bH)-one] returned a melting point of 138 to 140 °C. The same compound displayed a CC50 in “in vitro” (Picorana CC50) of 1.9 mg/L (≈ 5.86 µM).
The like results for `COC(=O)N[C@@]12C(=O)c3ccccc3[C@]1(O)Oc1cc(C(C)C)ccc12` [Example 84, Methyl (4bS,9bS)-4b-hydroxy-7-isopropyl-10-oxo-9b,10-dihydro-4bH-benzo[d]indeno[1,2-b]furan-9b-ylcarbamate] were, in that order, 161 to 163 °C and over 50 mg/L.
The compound `CC(=O)Nc1cccc2c1C(=O)[C@@]1(NC(C)=O)c3ccc(C(C)C)cc3O[C@@]21O` [Example 87, N,N′-((4bS,9bS)-4b-Hydroxy-7-isopropyl-10-oxo-9b,10-dihydro-4bH-benzo[d]indeno[1,2-b]furane-1,9b-diyl)diacetamide] yielded a melting point of 205 to 207 °C. Further, the CC50 in “in vitro” (Picorana CC50) was 36.8 mg/L (≈ 93.2 µM).
